In experiment [1] the test system is 387 protein kinases and 13 lipid kinases. The experiment can be described thus: Kinase profiling, selectivity score over the whole panel. In kind it is biochemical. The procedure:
(§1) The kinase profiling of compound 1-08 at 10 and 50 μM was performed by ProQinase GmbH (Freiburg, Germany). A radiometric protein kinase assay (^33PanQinase® Activity Assay) and the non-radiometric ADP-Glo™ Assay (Promega, Madison, Wis., USA) were used for measuring kinase activity of 387 protein kinases and 13 lipid kinases, respectively. The results are shown in Table 3 (only the top 10 kinases are listed, and the selectivity score describes the portion of kinases inhibited more than 50% in relation to all tested kinases).

In a further experiment the target is IGF1R (Homo sapiens, UniProt P08069). Briefly: Kinase profiling (ProQinase 33PanQinase Activity Assay), IGF1R. It counts as biochemical. The following applies: read-out: residual activity, IGF1R. The procedure: as §1
Experiment [2] concerns WK1 gliomaspheres (mesenchymal). The experiment can be described thus: AlamarBlue cell viability assay, WK1 gliomaspheres. In kind it is cell-based. The note with it: 72 h of drug treatment, FIG. 11B. The protocol:
FIGS. 11A-11B. Efficacy of SC-38 (referred to as “CMPD1”), compound 1-08 (referred to as “cmpd 13”), compound 1-18 (referred to as “cmpd 7”), and compound 1-38 (referred to as “cmpd 10”) in primary gliomaspheres representing two glioblastoma subtypes. (11A) RN1, classical, and (11B) WK1, mesenchymal. Cellular efficacy (EC50) of test compounds was determined using AlamarBlue cell viability assay after 72 h of drug treatment. Data are mean±SEM from 3 independent experiments performed in triplicate.
(§2) U87 and U251 cell lines were obtained from the European Collection of Cell Cultures (ECACC) through CellBank Australia. U87-EGFRvIII cell line was obtained from their lab of origin (Nishikawa et al., 1994, Proc Natl Acad Sci USA 91: 7727-7731) and tested for EGFR amplification and mutation by immunoblotting and flow cytometry. Cells were cultured in DMEM medium (Invitrogen by Life Technologies, Carlsbad, Calif., USA) supplemented with 10% FBS (Sigma-Aldrich) at 37° C. and 5% CO2. Primary gliomaspheres (RN1, classical; WK1, mesenchymal) were derived from glioblastoma specimens (Day et al., 2013, Cancers 5: 357-371; Day et al., 2013, Cancer Cell 23: 238-248), maintained in StemPro NSC serum-free media supplemented with EGF and FGF (all Life Technologies), and grown on matrigel-coated flasks (Pollard et al., 2009, Cell Stem Cell 4: 568-580).
The effect of SC-38, and compounds 1-08, 1-18 and 1-38 in a cell viability assay employing patient-derived gliomaspheres was also investigated. RN1 gliomaspheres representing glioblastoma of the classical subtype were most responsive to the treatment (FIG. 11, where SC-38 is referred to as “CMPD1”, compound 1-08 is referred to as “compound 13”, compound 1-18 is referred to as “compound 7”, and compound 1-38 is referred to as “compound 10”).

A further experiment has as its system U87. The experiment can be described thus: Alamar blue cell viability assay, U87 cells. In kind it is cell-based. The following applies: Homo sapiens, U-87 MG; 72 hours of treatment; mean±SEM, three independent experiments. The protocol: as §2
Cell viability was determined using Alamar blue assay after 72 hours of treatment (Table 2). EC50 values were calculated using non-linear regression on Graph Pad Prism version 5. c Log P values calculated using ChemBioDraw Software. Results are mean±SEM from three independent experiments performed in triplicates.

The target of the next experiment is T1, Porcine brain tubulin (Sus scrofa, UniProt P02550+P02554).
T1 construct: purchased Cytoskeleton, Colo., USA (Tubulin Polymerisation Assay kit); host or cells: porcine brain (tissue-purified)
The experiment can be described thus: Fluorescence-based tubulin polymerisation assay. It counts as biochemical. The note with it: 37° C., FIG. 10A. The protocol: FIGS. 10A-10D. […] (10A) Compound 1-08 inhibits tubulin polymerisation in vitro. Data are expressed as mean from at least 3 independent experiments; each data point was performed in triplicates. (10B) U87 cells treated with compound 1-08 (24 h) were stained with Alexa488-labelled anti-β-tubulin antibody (green) or DAPI (blue). Treatment profoundly disturbed the microtubule network and caused formation of multinucleated cell (white arrows). White scale bar represents 50 μm. Multinucleated cells were manually counted and at least 200 cells were counted for each sample. Data in the bar graph (10C) are expressed as mean±SEM (n=3; * P<0.05, *** P<0.001; 1-way ANOVA followed by Newman-Keuls posttest). (10D) U87 cells were treated with compound 1-08 (48 h), tubulin and DNA were stained as in (10B). Treatment with 1-08 caused defective mitotic spindle formation. Representative images from 3 independent experiments are shown. White scale bar represents 2 μm.
The effect of compound 1-08 on tubulin polymerisation and mitotic spindle formation was also investigated. The fluorescence-based tubulin polymerisation assay was conducted in the final volume of 55 μL using the Tubulin Polymerisation Assay kit (Cytoskeleton, Colo., USA) as per the manufacturer's instructions. Porcine brain tubulin was incubated with test compounds (paclitaxel, vinblastine and compound 1-08) at 37° C. and fluorescence was measured using FLUOstar Omega microplate reader (BMG Labtech, Ortenberg, Germany; excitation at 355 nm and emission at 460 nm). […] To test whether compound 1-08 alters microtubules in vivo, U87 glioblastoma cells were treated with compound 1-08 and the effect on the microtubules was determined by immunofluorescence staining of β-tubulin. […] The consequence of microtubule depolymerisation induced by compound 13 was disrupted spindle assembly (FIG. 10D). In untreated U87 cells undergoing mitosis, microtubules are assembled into bipolar spindles (control images).

The subject of another experiment is U87vIII. The experiment can be described thus: Annexin-FITC/7-AAD apoptosis assay, U87vIII cells. The note with it: 48 hours treatment. It counts as cell-based. The protocol:
FIGS. 4A-4D. […] U87 (4A-4B) and U87vIII (4C-4D) cells were treated with SC-38 for 48 hours and stained with Annexin-FITC/7-AAD. Apoptotic cells were visualized using the MUSE cell analyzer (Millipore).
FIGS. 6A-6D. […] U87 (A B) (6A-6B) and U87vIII (6C-6D) cells were treated with compound 1-08 for 48 hours and stained with Annexin-FITC/7-AAD. Apoptotic cells were visualized using the MUSE cell analyzer (Millipore). Results are means±SEM from 3 independent experiments. One-way ANOVA followed by Dunnet post-test was used to calculate statistical significance (***P<0.001).
U87 (FIGS. 4, A-B) and U87vIII (FIG. 4, C-D) cells were treated with SC-38 for 48 hours and stained with Annexin-FITC/7-AAD. Apoptotic cells were visualized using the MUSE cell analyzer (Millipore). Results are means±SEM from 3 independent experiments. One-way ANOVA followed by Dunnet post-test was used to calculate statistical significance (**P<0.01, ***P<0.001)
U87 (FIGS. 6, A-B) and U87vIII (FIG. 6, C-D) cells were treated with compound 1-08 for 48 hours and stained with Annexin-FITC/7-AAD. Apoptotic cells were visualized using the MUSE cell analyzer (Millipore). Results are means±SEM from three independent experiments. One-way ANOVA followed by Dunnet post-test was used to calculate statistical significance (***P<0.001).

Sequence of IGF1R (P08069 31-1367): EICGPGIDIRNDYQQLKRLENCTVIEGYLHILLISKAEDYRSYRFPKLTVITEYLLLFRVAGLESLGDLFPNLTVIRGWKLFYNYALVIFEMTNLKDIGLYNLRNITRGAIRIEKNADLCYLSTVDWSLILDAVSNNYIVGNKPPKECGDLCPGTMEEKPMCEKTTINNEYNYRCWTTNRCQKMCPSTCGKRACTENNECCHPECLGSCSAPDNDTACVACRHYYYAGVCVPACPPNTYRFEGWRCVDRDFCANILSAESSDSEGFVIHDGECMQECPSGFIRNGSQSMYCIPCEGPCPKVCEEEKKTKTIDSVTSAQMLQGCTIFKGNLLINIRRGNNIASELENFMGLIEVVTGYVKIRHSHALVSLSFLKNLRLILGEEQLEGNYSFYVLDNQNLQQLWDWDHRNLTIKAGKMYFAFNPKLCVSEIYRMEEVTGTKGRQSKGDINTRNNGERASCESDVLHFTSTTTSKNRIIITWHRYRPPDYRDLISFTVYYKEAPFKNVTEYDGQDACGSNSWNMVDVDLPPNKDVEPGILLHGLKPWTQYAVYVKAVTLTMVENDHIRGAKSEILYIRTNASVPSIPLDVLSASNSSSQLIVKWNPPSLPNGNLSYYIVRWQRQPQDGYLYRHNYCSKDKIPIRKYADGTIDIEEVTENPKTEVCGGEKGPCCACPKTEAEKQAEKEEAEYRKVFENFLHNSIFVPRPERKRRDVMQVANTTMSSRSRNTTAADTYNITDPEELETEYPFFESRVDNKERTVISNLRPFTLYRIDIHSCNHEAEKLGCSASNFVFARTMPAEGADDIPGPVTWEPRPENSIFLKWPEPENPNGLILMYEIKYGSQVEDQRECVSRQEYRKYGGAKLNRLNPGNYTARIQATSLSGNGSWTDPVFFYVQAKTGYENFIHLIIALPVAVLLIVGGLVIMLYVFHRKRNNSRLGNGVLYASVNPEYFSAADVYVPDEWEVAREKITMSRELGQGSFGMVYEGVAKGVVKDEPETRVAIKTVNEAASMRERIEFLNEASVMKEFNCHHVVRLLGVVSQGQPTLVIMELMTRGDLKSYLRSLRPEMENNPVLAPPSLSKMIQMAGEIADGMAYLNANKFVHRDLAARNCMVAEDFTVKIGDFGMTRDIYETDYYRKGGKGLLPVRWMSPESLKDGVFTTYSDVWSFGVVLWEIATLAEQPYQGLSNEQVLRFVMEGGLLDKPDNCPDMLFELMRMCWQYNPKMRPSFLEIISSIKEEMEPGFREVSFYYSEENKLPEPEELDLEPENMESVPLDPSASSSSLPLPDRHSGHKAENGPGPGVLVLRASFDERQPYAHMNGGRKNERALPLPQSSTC
T1 sequence (P02550 whole entry): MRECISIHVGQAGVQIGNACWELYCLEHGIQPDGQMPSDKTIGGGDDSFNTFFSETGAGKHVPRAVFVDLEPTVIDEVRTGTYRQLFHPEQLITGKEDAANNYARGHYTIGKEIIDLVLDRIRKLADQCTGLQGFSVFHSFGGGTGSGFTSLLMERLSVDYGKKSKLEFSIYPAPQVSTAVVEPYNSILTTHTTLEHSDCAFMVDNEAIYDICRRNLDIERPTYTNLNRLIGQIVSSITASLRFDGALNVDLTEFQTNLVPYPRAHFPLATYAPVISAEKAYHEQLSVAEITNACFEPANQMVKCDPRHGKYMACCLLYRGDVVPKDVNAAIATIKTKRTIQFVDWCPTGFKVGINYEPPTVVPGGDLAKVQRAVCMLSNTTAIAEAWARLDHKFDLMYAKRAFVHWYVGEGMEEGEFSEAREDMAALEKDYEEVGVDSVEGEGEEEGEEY
T1 sequence (P02554 whole entry): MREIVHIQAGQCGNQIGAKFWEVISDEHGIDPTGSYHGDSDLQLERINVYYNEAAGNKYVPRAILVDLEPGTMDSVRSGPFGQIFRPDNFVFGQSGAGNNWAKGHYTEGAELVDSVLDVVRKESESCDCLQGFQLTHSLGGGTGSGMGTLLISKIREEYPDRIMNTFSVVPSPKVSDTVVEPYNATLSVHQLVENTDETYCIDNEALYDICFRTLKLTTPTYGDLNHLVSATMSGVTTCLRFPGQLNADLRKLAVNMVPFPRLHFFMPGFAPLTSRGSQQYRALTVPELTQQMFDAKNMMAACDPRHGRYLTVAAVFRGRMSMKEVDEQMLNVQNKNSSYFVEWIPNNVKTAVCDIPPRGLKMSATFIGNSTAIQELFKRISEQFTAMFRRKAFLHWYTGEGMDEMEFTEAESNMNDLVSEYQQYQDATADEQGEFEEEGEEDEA

As for `O=C(CCCc1ccc(-c2cnc3ccccc3c2)cc1)Nc1ccc(O)cc1` [Compound 1-08, N-(4-hydroxyphenyl)-4-(4-(quinolin-3-yl)phenyl)butanamide], the “Selectivity score (portion of kinases inhibited more than 50% in relation to all tested kinases)” value in experiment [1] (10 μM compound) was determined as 0.003; in experiment [1] (50 μM compound), 0.203. Moreover, the remaining activity at 10 µM at IGF1R (10 μM compound) is 73%. For the same compound, the remaining activity at 50 µM at IGF1R (50 μM compound) turned out to be 15%. Also, the EC50 in experiment [2] came out at 3820 nM; in the experiment with U87, 650 ± 300 nM. Also, the “effect on tubulin polymerisation compared to control” value at Porcine brain tubulin is recorded as “inhibited tubulin polymerisation in a dose-dependent manner”. The “apoptosis, U87vIII” value with U87vIII is “induced apoptosis”.

Values taken from US10745355B2, “Anti-cancer compounds” (THE UNIVERSITY OF SYDNEY, priority 2015, dated 2020).
